Test results taken from paper PMC7995547, “ω‐Imidazolyl‐alkyl derivatives as new preclinical drug candidates for treating non‐alcoholic steatohepatitis” (Physiological Reports, 2021).
Where “and” joins values, the source holds several entries; their conditions need not be identical. Identical values can stand only once.

How the values were obtained:
Assay type in all cases: in vivo, Wistar rats
[1] = tested on: HFD‐induced NASH rat model (serum); assay: Liver enzyme activities and bilirubin in serum, NASH rat model; details: for Decrease in serum bilirubin level compared to disease group / Decrease in γ‐GT enzymatic activity compared to disease group / Reduction of the effect of HFD on γ‐GT activity: UDCA 40 mg/kg b.w.; for Decrease in γ‐GT enzymatic activity compared to disease group / Reduction of the effect of HFD on γ‐GT activity: average over doses (I‐ol, I‐an); for Decrease in ALT enzymatic activity compared to disease group / Reduction of the effect of HFD on ALT activity: highest concentrations (40 mg/kg b.w.); for Reduction of the effect of HFD on ALT activity: b87: dose not stated; for Decrease in AP enzymatic activity compared to disease group / Decrease in AST enzymatic activity compared to disease group: number: highest concentration (40 mg/kg b.w.), words: compound overall
Method: (§1) Studies were done using Wistar rats of female sex by the Institute of Pharmacology and Biochemistry at Minsk. The animals were 80–90 days old and weighed 180–200 g. They had free access to a liquid Lieber‐DeCarli (LDC) diet (Lieber et al., 2004) and were housed under standard conditions meaning a 12‐h light/dark cycle at 22 ± 2°C and 55 ± 5% humidity.
(§2) Group 1 was designated as the first control group; it was fed a normal standard solid diet. Group 2, as the second control group, was fed a standard amount of fat as a part of the liquid “physiological,” non‐high fat LDC diet. All other groups received the liquid ‘disease‐causing’ LDC diet (Table 2), including a high content of unsaturated fatty acids.
(§3) Both LDC diets were in a liquid form as produced by ssniff‐Spezialdiäten GmbH, Soest (Germany). The feed was provided over the entire experimental period of 16 weeks; however, the corresponding experimental substances were only administered in the last four weeks (Figure 3).
(§4) The experimental substances I‐ol, I‐an, and UDCA were dissolved in a 0.8% aqueous HPMC gel to obtain the following concentrations: (1) I‐ol at 0.4, 4, and 40 mg/kg body weight (b.w.), (2) I‐an at 0.4, 4, and 40 mg/kg b.w., and (3) UDCA at 40 mg/kg b.w. The Group‐2 and −3 rats received only HPMC as placebo. Each test encompassed 6–8 rats that were put up in a separate cage. The rats were fed ad libitum, and their intake per cage was controlled daily. In order to ensure an exact daily reproducible dosage, the experimental substances or only HPMC was administered intragastrically via oral gavage. Basically, the drug therapy of a chronic disease is the more efficient the higher the adherence of the affected patients. This is generally higher with peroral administration than with any other form of application. At the end of the experiment, the animals were sacrificed under fasting conditions, by aorta dissection and exsanguination, after anesthetizing with an intraperitoneal injection of 5% pentobarbital solution.
The activities of the liver enzymes aspartate aminotransferase (AST), alanine aminotransferase (ALT), alkaline phosphatase (AP), and γ‐glutamyl transferase (γ‐GT) as well as bilirubin and triglyceride levels in the serum were determined as described by the instructions of BIO‐LA‐tests kit (Erba Lachema, Brno, Czech Republic).

[2] = tested on: HFD‐induced NASH rat model (liver); assay: Liver histopathology, semi‐quantitative evaluation, NASH rat model; design: key to Steatosis score / Balooning score: 0, none; 1, ≤25%; 2, 26–50%; 3, ≥51–75% of liver parenchyma; details: for Balooning score / Inflammation score / Steatosis score: H.E.‐stained liver slices
Method: as §1, §2, §3, §4
Pieces of liver tissue measuring 1 × 2 × 0.5 mm were chosen randomly and fixed for a week in the mixture of 1% formaldehyde and 1% paraformaldehyde in Sorensen's phosphate buffer (pH 7.4) (Morphisto GmbH, Frankfurt/Main). After this the pieces were kept in 2.5% glutaraldehyde in same buffer, rinsed and then post‐fixed in 1% solution of osmium tetroxide on the Sorensen's phosphate buffer (pH 7.4). After fixation, the liver samples were dehydrated and embedded in the pre‐polymerized mixture of methyl methacrylate and butyl methacrylate (1:4, v/v) containing 2,4‐dichlorbenzoyl peroxide as a catalyst.
[…] A semi‐quantitative evaluation of the sections was performed according to the procedure described by Koppe et al. (Koppe et al., 2004).

[3] = tested on: HFD‐induced NASH rat model (serum); assay: Adipocytokines and glucose metabolism in serum, NASH rat model; details: for Decrease in serum TNF‐α level compared to disease group / Decrease in serum leptin compared to disease group / Increase in serum adiponectin compared to disease group / Reduction of the effect of HFD on serum adiponectin / Reduction of the effect of HFD on serum leptin: average over doses (I‐ol, I‐an); for Reduction of the effect of HFD on serum adiponectin: UDCA 40 mg/kg b.w. (elevated the concentration by); for Reduction of the effect of HFD on serum leptin: UDCA 40 mg/kg b.w. (reduced leptin concentration); for Serum leptin above the reference value of control group 1: highest concentrations (40 mg/kg b.w.)
Method: as §1, §2, §3, §4
The concentrations of adiponectin and TNFα were measured using ELISA kits sold by BioCat GmbH (Heidelberg, Germany), whereas the one for determining leptin level was procured from BioVendor Laboratory Medicine Inc. (Brno, Czech Republic). Insulin concentration was determined using the radioimmunoassay kit RIO‐insulin‐PG‐J125 (IBOCH, Minsk, Belarus). Serum glucose level was determined based on the “Accu‐Check Active blood glucose” monitoring method developed by Roche‐Diagnostics.

[4] = serum, highest concentration (40 mg/kg b.w.)

Compound | Decrease in serum bilirubin level compared to disease group ([1]; average over doses) | Decrease in γ‐GT enzymatic activity compared to disease group ([1]; serum) [%] | Reduction of the effect of HFD on γ‐GT activity ([1]; serum) [%] | Decrease in ALT enzymatic activity compared to disease group ([1]; serum) [%] | Reduction of the effect of HFD on ALT activity ([1]; serum) | Decrease in AP enzymatic activity compared to disease group ([1]; serum) | Decrease in AST enzymatic activity compared to disease group ([1]; serum) | Balooning score ([2]; 0.4 mg/kg b.w. + HFD) | Inflammation score ([2]; 0.4 mg/kg b.w. + HFD) | Steatosis score ([2]; 0.4 mg/kg b.w. + HFD) | Balooning score ([2]; 4.0 mg/kg b.w. + HFD) | Inflammation score ([2]; 4.0 mg/kg b.w. + HFD) | Steatosis score ([2]; 4.0 mg/kg b.w. + HFD) | Balooning score ([2]; 40.0 mg/kg b.w. + HFD) | Inflammation score ([2]; 40.0 mg/kg b.w. + HFD) | Steatosis score ([2]; 40.0 mg/kg b.w. + HFD) | Decrease in serum TNF‐α level compared to disease group ([3]; UDCA 40 mg/kg b.w.) | Decrease in serum leptin compared to disease group ([3]; UDCA 40 mg/kg b.w.) [%] | Increase in serum adiponectin compared to disease group ([3]; UDCA 40 mg/kg b.w.) [%] | Reduction of the effect of HFD on serum adiponectin [3] [%] | also measured
CCCCCCCCCCCCn1ccnc1 [I‐an, 1‐imidazolyldodecane] | no therapeutic effect | 35 | 86 | 20 | 66% and ~70% | 21% | 21% | 0–1 | 1 (1, <5 signs of inflammation) | 0–1 | 1 (1, ≤25%) | 1 (1, <5 signs of inflammation) | 0–1 | 0–1 | 1 (1, <5 signs of inflammation) | 0–1 | not significant | 18 | 31 | 38 | Dose dependence of the effect on ALT activity ([1]; 0.4, 4, 40 mg/kg b.w.): weak, significant (p < 0.05), linear, dose‐dependent effect; Dose dependence of the effect on AP activity ([1]; 0.4, 4, 40 mg/kg b.w.): weak but significant (p < 0.05), linear, dose‐dependent effect; Dose dependence of the effect on AST activity ([1]; 0.4, 4, 40 mg/kg b.w.): moderate, very highly significant (p < 0.001), linear, dose‐dependent effect; Reduction of the effect of HFD on AP activity [1, 4]: 89%; Reduction of the effect of HFD on AST activity [1, 4]: 92% and 90%; Dose dependence of the effect on serum adiponectin ([3]; 0.4, 4, 40 mg/kg b.w.): weak, significant (p < 0.05) linear dose‐dependent effect; Dose dependence of the effect on serum leptin ([3]; 0.4, 4, 40 mg/kg b.w.): weak yet significant (p < 0.05) linear dose‐dependent effect; Reduction of the effect of HFD on serum leptin [3]: 62%; Serum leptin above the reference value of control group 1 [3]: 1%
OCCCCCCCCCCCCn1ccnc1 [I‐ol, 12‐imidazolyl‐1‐dodecanol] | 14% | 34 | 84 | 16 | 55% and ~70% | no therapeutic effect | no therapeutic effect | 1 (1, ≤25%) | 1–2 | 0–1 | 1 (1, ≤25%) | 1 (1, <5 signs of inflammation) | 0 | 1 (1, ≤25%) | 1 (1, <5 signs of inflammation) | 0–1 | 49% | 22 | 64 | 78 | Dose dependence of the effect on γ‐GT activity ([1]; 0.4, 4, 40 mg/kg b.w.): moderate but very highly significant (p < 0.001), linear, dose‐dependent effect; Serum bilirubin below the levels measured in the disease group and the two control groups ([1]; average over doses): more than 10%; Effect on liver histology (in words) ([2]; animals with NASH (HFD)): dose‐dependent reduction of the pathological signs; Reduction of the effect of HFD on serum TNF‐α level ([3]; average over doses (I‐ol), UDCA 40 mg/kg b.w.): 66%; Reduction of the effect of HFD on serum leptin [3]: 75%; Serum adiponectin above the reference value of control group 1 ([3]; highest concentration (40 mg/kg b.w.)): 4%; Serum leptin above the reference value of control group 1 [3]: 3%
